As usually defined, the IC50 is the point on the concentration scale where inhibition reaches its midpoint. The EC50 is the concentration that produces a half-maximal response. For orientation: DC50 means the concentration at which degradation of the target reaches its halfway point. Read a low DC50 as degradation at low concentration.

Each structure is given as a SMILES string. Like-named read-outs stand apart in the source and are kept apart here.

The subject of one assay is HCT116 cells. Briefly: HCT116 cell viability using CellTiter-Glo. Format: cell-based. Conditions: Homo sapiens, HCT-116, HCT116, 72 h, read-out: 3-Day CTG IC50 in HCT116. On the procedure:
Example 108: Measurement of HCT116 Cell Viability Using CellTiter-Glo
HCT116 cells with the passage number ranging from 13 to 25 were plated in an opaque-walled 384 well plate (Corning, Cat. #3765, Corning, NY) at a density of 1000 cells/well in 50 μl medium containing McCoy's 5A medium (Cat. #16600082, ThermoFisher, Waltham, MA), 10% Fetal Bovine Serum (Cat. #26140, ThermoFisher, Waltham, MA) and 1% Pen-Strep (Cat. #. 15070063, ThermoFisher, Waltham, MA). After overnight incubation, cells were treated with various concentrations of compounds (0-10 μM) in DMSO (final concentration of 0.2% DMSO) for 72 h. CellTiter-Glo® Reagent (Cat. #G7573, Promega, Waltham, MA) was then added to all wells. The plates were placed on an orbital shaker to mix the content and induce cell lysis. The plates were then incubated at room temperature for 10 minutes to stabilize luminescent signal. The luminescence was recorded using Envision multilabel plate reader (Perkin-Elmers, Waltham, MA) and the data was fit by using Excel-fit (Microsoft, Redmond, WA).

Assay [1] concerns the target T1, DCAF15-RBM39 ternary complex (Homo sapiens, UniProt Q14498+Q66K64).
T1 construct: (RRM2)
Briefly: Compound-induced DCAF15-RBM39 ternary complex formation, AlphaLISA. Format: biochemical. The method in brief:
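Protein mixture incubated with compounds for one hour at room temperature; AlphaLISA beads then added sequentially, 1-2 h at room temperature after each. No-compound wells served as negative controls; His-tagged biotinylated GST tracked assay performance.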
(In general: In Alpha technology, singlet oxygen from a donor bead excites a nearby acceptor bead.)

The next assay concerns the target T2, RBM39 (Homo sapiens, UniProt Q14498+Q66K64).
T2 construct: endogenous in cells; host or cells: HCT116
Briefly: Western blot assay for degradation of RBM39 in HCT116 cells. The format is cell-based. Conditions: HCT116, 4 h. On the procedure:
Example 107: Western Blot Assay Procedure for Assessing Degradation of RBM39 in HCT116 Cells
HCT116 cells were used with passage numbers ranging from 13 to 25. Cells were seeded in 12-well plated at a density of 1 million cells per well in 1 mL cell culture medium containing McCoy's 5A medium (Cat. #16600082, ThermoFisher, Waltham, MA), 10% Fetal Bovine Serum (Cat. #26140, ThermoFisher, Waltham, MA) and 1% Pen-Strep (Cat. #. 15070063, ThermoFisher, Waltham, MA) and incubated overnight. The next morning, compounds were serially diluted (1:3, 9 points) in the medium separately and were prepared 2× the final assay concentration. Subsequently, 1.0 mL medium containing DMSO or the appropriate concentration of each compound was added to respective wells. The final DMSO concentration in each well was 0.1%. […] Cells were then washed once with 1 mL of ice cold Dulbecco's phosphate-buffered saline (Cat. #28374, ThermoFisher, Waltham, MA) and then lysed with 100 μl of lysis buffer containing 1× RIPA (Cat. #. 89900, ThermoFisher, Waltham, MA) and HALT protease and phosphatase inhibitor (Cat. #78442, ThermoFisher, Waltham, MA) on ice for 10 minutes with intermittent rocking. Lysates were then sonicated in a sonication bath (3 pulses of 10 sec each with 1 min incubation on ice between each pulse). Samples were then centrifuged for 20 min at 14,000 rpm for 20 min. Supernatants were then transferred to fresh microfuge tubes and stored frozen at −80° C. until use. Total protein quantitation in lysate samples was done using the BCA protein quantitation kit following the manufacturer's instructions. For polyacrylamide gel electrophoresis, each sample ([…] total protein), was diluted with Laemmli sample buffer (Cat. #. 1610747, BioRad, Hercules, CA) by adding 9 ul of lysate to 3 ul of sample buffer containing 10% β-mercaptoethanol. Samples were then denatured at 95° C. for 5 minutes in a heat block, centrifuged at 14,000 rpm for 5 min, and placed on ice. Subsequently, 12 ul of each sample was loaded on 4-20% Tris/Glycine gels and electrophoresed in 1×Tris/Glycine SDS buffer at 80 (constant) volts for 2 h. Resolved samples were then transferred from gels to PVDF membrane using the BioRad Turbo-transfer unit with the Turbo default program (Cat. #. 1704150EDU, BioRad, Hercules, CA). For immunoblotting, membranes were first blocked for 1 hour at room temperature using Odyssey Blocking Buffer (Cat. #: 927-60001, Li-cor, Lincoln, NE) with continuous rocking. Membrane was then incubated with primary antibodies, anti-RBM39 (Sigma Cat. #: HPA001591, St. Louis, MO) and anti-β-actin (Cell Signaling Cat. #3700S, Danvers, MA), diluted 1000 fold each, at 4° C. for overnight. Subsequently, membrane was washed three times for at room temperature with continuous rocking (5 minutes each wash) using TBS buffer containing 0.1% Tween-20. After the final wash, secondary antibodies, IRDye 680 RD Goat anti Mouse IgG H+L (Cat. #: 926-68070, Li-cor, Lincoln, NE), and IRDye 800CW Goat anti Rabbit IgG H+L (Cat. #: 926-32211, Li-cor, Lincoln, NE), each diluted 10,000-fold, were added to the membranes and incubated at room temperature for 1 h with continuous rocking. Membranes were then washed 3 times with 1×TBS and scanned using Odessey CLx imaging system (Li-cor, Lincoln, NE) using default settings. Band intensity in images was quantified using the Image Studio Lite software (Version 5.2). Signal intensity for RBM-39 specific bands were normalized using the signal intensity for β-actin-specific band, and percent degradation was assessed by comparing RBM39 signal in compound-treated vs. DMSO-treated samples.
(In general: Immunoblotting shows a protein as a band on a membrane.)

Another assay deals with DCAF15 (Homo sapiens, UniProt Q66K64). Briefly: Binary interaction between compounds and DCAF15, HTRF competition assay. The format is binding. The method in brief: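 HTRF competition format: DCAF15 premixed 15 min at room temperature with anti-6His-Eu cryptate antibody, then combined with tracer and compound. Binding derived from ratiometric signal with titration curves; no-DCAF15 wells as controls.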
Chain of DCAF15 (Q66K64 whole entry): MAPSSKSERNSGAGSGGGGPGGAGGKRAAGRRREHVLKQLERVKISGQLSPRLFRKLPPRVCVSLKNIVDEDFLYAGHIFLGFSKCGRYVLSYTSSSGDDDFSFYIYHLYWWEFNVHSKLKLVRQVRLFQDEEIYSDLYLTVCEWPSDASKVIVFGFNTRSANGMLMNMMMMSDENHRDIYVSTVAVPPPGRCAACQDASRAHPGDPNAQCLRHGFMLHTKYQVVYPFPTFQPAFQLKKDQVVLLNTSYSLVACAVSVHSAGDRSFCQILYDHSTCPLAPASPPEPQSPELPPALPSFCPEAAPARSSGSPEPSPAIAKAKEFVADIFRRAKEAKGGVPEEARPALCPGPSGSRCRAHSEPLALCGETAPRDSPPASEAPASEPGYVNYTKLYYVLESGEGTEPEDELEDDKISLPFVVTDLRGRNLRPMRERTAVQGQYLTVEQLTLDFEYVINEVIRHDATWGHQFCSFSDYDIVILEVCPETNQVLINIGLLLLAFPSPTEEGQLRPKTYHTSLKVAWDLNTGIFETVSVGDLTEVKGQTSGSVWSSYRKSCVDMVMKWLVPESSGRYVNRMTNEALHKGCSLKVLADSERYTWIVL
Chain of DCAF15 (Q16531 whole entry partner): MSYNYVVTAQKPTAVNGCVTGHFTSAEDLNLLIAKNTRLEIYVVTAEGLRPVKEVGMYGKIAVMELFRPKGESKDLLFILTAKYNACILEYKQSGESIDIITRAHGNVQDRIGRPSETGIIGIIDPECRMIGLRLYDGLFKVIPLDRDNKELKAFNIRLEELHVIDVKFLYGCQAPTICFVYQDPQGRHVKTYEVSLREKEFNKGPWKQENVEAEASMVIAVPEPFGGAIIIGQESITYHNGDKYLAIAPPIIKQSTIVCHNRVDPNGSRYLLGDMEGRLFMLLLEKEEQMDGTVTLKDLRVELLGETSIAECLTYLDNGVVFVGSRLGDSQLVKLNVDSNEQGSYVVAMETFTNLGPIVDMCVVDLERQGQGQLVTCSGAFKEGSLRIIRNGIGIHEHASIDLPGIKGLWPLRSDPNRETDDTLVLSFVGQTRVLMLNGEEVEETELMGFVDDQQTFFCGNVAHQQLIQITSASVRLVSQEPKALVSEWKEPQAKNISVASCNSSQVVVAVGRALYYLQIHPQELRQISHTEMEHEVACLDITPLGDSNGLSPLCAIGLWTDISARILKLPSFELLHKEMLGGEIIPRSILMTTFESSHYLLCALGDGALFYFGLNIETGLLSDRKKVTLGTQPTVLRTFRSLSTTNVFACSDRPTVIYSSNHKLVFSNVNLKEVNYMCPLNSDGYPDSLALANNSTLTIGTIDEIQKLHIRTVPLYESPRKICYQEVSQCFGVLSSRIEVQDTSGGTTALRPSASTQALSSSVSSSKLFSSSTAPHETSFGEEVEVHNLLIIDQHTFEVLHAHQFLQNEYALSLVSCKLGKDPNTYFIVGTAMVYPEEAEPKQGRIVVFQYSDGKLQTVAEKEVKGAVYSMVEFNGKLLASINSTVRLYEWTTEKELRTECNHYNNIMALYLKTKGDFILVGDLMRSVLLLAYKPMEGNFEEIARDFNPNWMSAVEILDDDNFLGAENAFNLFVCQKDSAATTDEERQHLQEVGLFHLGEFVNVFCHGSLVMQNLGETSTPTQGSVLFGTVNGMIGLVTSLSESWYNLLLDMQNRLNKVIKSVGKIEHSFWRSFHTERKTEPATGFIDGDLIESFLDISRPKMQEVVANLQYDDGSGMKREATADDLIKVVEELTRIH

Setting [2] is: AlphaLISA, His-tagged DCAF15 complex and biotin-carrying RBM39, read-out: Ternary-RBM39 (RRM2) EC50.
Where [3] appears, read: HTRF competition with Alexa Fluor 647 tracer, His-tagged DCAF15 complex, read-out: DCAF15 IC50.

T1 sequence (Q66K64 whole entry): as the sequence (Q66K64 whole entry) above
T1 sequence (Q14498 250-328 limits assumed): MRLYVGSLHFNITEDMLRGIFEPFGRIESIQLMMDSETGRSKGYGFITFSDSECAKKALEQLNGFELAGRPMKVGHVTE
T1 sequence (Q16531 whole entry partner): as the sequence (Q16531 whole entry partner) above

Take `COCCNS(=O)(=O)c1ccc(S(=O)(=O)Nc2ccc(Cl)c3c(Cl)c[nH]c23)cc1` [Compound 2, N^1-(3,4-dichloro-1H-indol-7-yl)-N^4-(2-methoxyethyl)benzene-1,4-disulfonamide]: the IC50 in the assay on HCT116 cells was below 1000 nM. Further, in assay [1] (setting [2]), the concentration for a half-maximal effect (EC50) was below 1000 nM.

For the compound `N#Cc1cccc(S(=O)(=O)Nc2ccc(Cl)c3c(Cl)c[nH]c23)c1` [Compound 74, 3-cyano-N-(3,4-dichloro-1H-indol-7-yl)benzenesulfonamide], the 50% effective concentration (EC50) in assay [1] (setting [2]) was below 1000 nM. This compound showed a half-maximal degradation concentration (DC50) at RBM39 below 100 nM.

Take `Cc1ccc(NS(=O)(=O)c2cccc(C#N)c2)c2[nH]cc(C(F)F)c12` [Compound 100, 3-cyano-N-(3-(difluoromethyl)-4-methyl-1H-indol-7-yl)benzenesulfonamide]: the IC50 with HCT116 cells is below 1000 nM. Besides, the concentration giving a half-maximal response (EC50) in assay [1] (setting [2]) is below 5000 nM.

On to `Cc1ccc(NS(=O)(=O)c2ccc(-n3ccnn3)cc2)c2[nH]cc(C#N)c12` [Compound 95, N-(3-cyano-4-methyl-1H-indol-7-yl)-4-(1H-1,2,3-triazol-1-yl)benzenesulfonamide], for which the concentration giving a half-maximal response (EC50) in assay [1] (setting [2]) was below 1000 nM. Moreover, the DC50 at RBM39 is below 100 nM.

As to `Cc1ccc(NS(=O)(=O)c2cc(F)cc(C#N)c2)c2[nH]cc(C(F)F)c12` [Compound 101, 3-cyano-N-(3-(difluoromethyl)-4-methyl-1H-indol-7-yl)-5-fluorobenzene sulfonamide], the IC50 in the assay with HCT116 cells is below 1000 nM; on DCAF15 (setting [3]), below 100000 nM. Moreover, the concentration giving a half-maximal response (EC50) in assay [1] (setting [2]) is below 5000 nM.

With `Cc1ccc(NS(=O)(=O)c2cccc(C#N)c2)c2[nH]cc(C#N)c12` [Compound E-7820, E-7820, reference compound], in the assay on HCT116 cells, the IC50 is below 1000 nM.

For `NS(=O)(=O)c1ccc(S(=O)(=O)Nc2cccc3c(Cl)c[nH]c23)cc1` [Indisulam, indisulam, reference compound], in the assay with HCT116 cells, the IC50 was below 1000 nM. In addition, the half-maximal effective concentration (EC50) in assay [1] (setting [2]) was below 1000 nM.

For the compound `Cc1ccc(NS(=O)(=O)c2cccc(-n3ccnn3)c2)c2[nH]cc(C#N)c12` [Compound 96, N-(3-cyano-4-methyl-1H-indol-7-yl)-3-(1H-1,2,3-triazol-1-yl)benzenesulfonamide], the EC50 in assay [1] (setting [2]) is below 1000 nM. Further, at DCAF15 (setting [3]), the IC50 is below 20000 nM. The compound further displayed a DC50 at RBM39 below 100 nM.

As for `NCCCCCCCNS(=O)(=O)c1ccc(S(=O)(=O)Nc2ccc(Cl)c3c(Cl)c[nH]c23)cc1` [Compound 8, N^1-(7-aminoheptyl)-N^4-(3,4-dichloro-1H-indol-7-yl)benzene-1,4-disulfonamide], the EC50 in assay [1] (setting [2]) is below 1000 nM. The compound further yielded a half-maximal degradation concentration (DC50) on RBM39 below 1000 nM.

As for `O=S(=O)(Nc1ccc(Cl)c2c(Cl)c[nH]c12)c1ccc(S(=O)(=O)N2CCNCC2)c(F)c1` [Compound 45, N-(3,4-dichloro-1H-indol-7-yl)-3-fluoro-4-(piperazin-1-ylsulfonyl)benzenesulfonamide], in assay [1] (setting [2]), the EC50 is below 1000 nM. At DCAF15 (setting [3]), the concentration for half-maximal inhibition (IC50) was below 5000 nM.

For `O=S(=O)(Nc1ccc(Cl)c2c(Cl)c[nH]c12)c1ccc(S(=O)(=O)N2CCN(CCOCCc3ccccn3)CC2)cc1` [Compound 51, N-(3,4-dichloro-1H-indol-7-yl)-4-((4-(2-(2-(pyridin-2-yl)ethoxy)ethyl)piperazin-1-yl)sulfonyl)benzenesulfonamide], the EC50 in assay [1] is below 1000 nM. At DCAF15, this compound yielded an IC50 below 20000 nM.

Turning to `Cc1cc(CNS(=O)(=O)c2ccc(S(=O)(=O)Nc3ccc(Cl)c4c(Cl)c[nH]c34)cc2)nn1C` [Compound 15, N^1-(3,4-dichloro-1H-indol-7-y1)-N^4-((1,5-dimethyl-1H-pyrazol-3-yl)methyl)benzene-1,4-disulfonamide], in assay [1] (setting [2]), the EC50 was below 20000 nM. The IC50 at DCAF15 (setting [3]) is below 5000 nM.

Take `O=C(CCCNS(=O)(=O)c1ccc(S(=O)(=O)Nc2ccc(Cl)c3c(Cl)c[nH]c23)cc1)N1CCCC1` [Compound 27, N^1-(3,4-dichloro-1H-indol-7-yl)-N^4-(4-oxo-4-(pyrrolidin-1-yl)butyl)benzene-1,4-disulfonamide]: the EC50 in assay [1] (setting [2]) was below 1000 nM. Moreover, the half-maximal inhibitory concentration (IC50) on DCAF15 (setting [3]) is below 5000 nM.

In the case of `CCCN(c1ccc(S(=O)(=O)Nc2ccc(Cl)c3c(Cl)c[nH]c23)cc1)S(=O)(=O)C1CCNCC1` [Compound 63, N-(4-(N-(3,4-dichloro-1H-indol-7-yl)sulfamoyl)phenyl)-N-propylpiperidine-4-sulfonamide], in assay [1] (setting [2]), the 50% effective concentration (EC50) was below 1000 nM. Also, the IC50 at DCAF15 (setting [3]) is below 5000 nM.

Regarding `CN(C)C(=O)c1ccc(CCNS(=O)(=O)c2ccc(S(=O)(=O)Nc3ccc(Cl)c4c(Cl)c[nH]c34)cc2)cc1` [Compound 23, 4-(2-((4-(N-(3,4-dichloro-1H-indol-7-yl)sulfamoyl)pheny 1)sulfonamido)ethyl)-N,N-dimethylbenzamide], the EC50 in assay [1] (setting [2]) is below 5000 nM. Moreover, at DCAF15 (setting [3]), the 50% inhibitory concentration (IC50) is below 20000 nM.

In the case of `Cc1ccc(NS(=O)(=O)c2ccc(S(=O)(=O)N3CCC(N)CC3)cc2)c2[nH]cc(C#N)c12` [Compound 81, 4-((4-aminopiperidin-1-yl)sulfonyl)-N-(3-cyano-4-methyl-1H-indol-7-yl) benzenesulfonamide], the EC50 in assay [1] (setting [2]) was below 1000 nM. For the same compound, the 50% inhibitory concentration (IC50) at DCAF15 (setting [3]) was below 5000 nM.

`O=C1CCC(NS(=O)(=O)c2ccc(S(=O)(=O)Nc3ccc(Cl)c4c(Cl)c[nH]c34)cc2)CN1` (stereo not drawn) [Compound 31, N^1-(3,4-dichloro-1H-indol-7-yl)-N^4-(6-oxopiperidin-3-yl)benzene-1,4-disulfonamide]: the EC50 in assay [1] (setting [2]) was below 1000 nM. On DCAF15 (setting [3]), the half-maximal inhibitory concentration (IC50) is below 5000 nM.

Take `CCCN(c1ccc(S(=O)(=O)Nc2ccc(Cl)c3c(Cl)c[nH]c23)cc1)S(=O)(=O)N1CCN(C)CC1` [Compound 66, N-(4-(N-(3,4-dichloro-1H-indol-7-yl)sulfamoyl)phenyl)-4-methyl-N-propylpiperazine-1-sulfonamide]: the EC50 in assay [1] (setting [2]) is below 1000 nM. The half-inhibitory concentration (IC50) on DCAF15 (setting [3]) is below 5000 nM.

For `N#Cc1cccc(S(=O)(=O)Nc2ccc(I)c3c(Cl)c[nH]c23)c1` [Compound 102, N-(3-chloro-4-iodo-1H-indol-7-yl)-3-cyanobenzenesulfonamide], the half-maximal effective concentration (EC50) in assay [1] (setting [2]) was below 5000 nM. Moreover, at DCAF15 (setting [3]), the IC50 is below 100000 nM.
